One test concerns the target Ae. aegypti NPYLR7 (Aedes aegypti, UniProt U5N1H5). The experiment in a line: In vitro calcium (GCaMP6s) FLIPR assay in HEK293T cells transfected with NPYLR7. Format: cell-based. To be noted: for activation at 100 µM: single replicate of the dose-response curve; for in vitro potency (in words): relative to reference compound TDI-012631. An outline of the steps:
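HEK293T cells transiently co-transfected with GCaMP6s, mouse Gqα15 and NPYLR7; FLIPR imaging every second for 5 min, compound (0–100 μM) added after 30 s baseline in HBSS + 20 mM HEPES. Response normalized to buffer (0%) and 10 μM FMRFa3 (100%); relative EC50 by four-parameter fit, replicates averaged.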

The subject of test [1] is Aedes aegypti (Orlando strain) females. As to the kind of experiment: Host-seeking screening assay (miniport olfactometer). Format: in vivo. Conditions: for Attraction (relative to saline): per-compound value of Fig. 3C. The method, boiled down: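 Fasted Orlando-strain females fed saline meals (400 mM NaHCO3) with 1 mM ATP and test compound at 1 μM final via warmed membrane feeders; lethality counted 24 h post-meal. At 48 h, attraction to human-scented stocking plus 5% CO2 scored over 5 min, normalized to matched saline-fed controls.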

Test [2] has the same test system. As to the kind of experiment: Glytube feeding: females feeding to repletion and weight per female (meal palatability). Format: in vivo. Conditions: Supplemental Figure 1 Panel A; compounds of Fig 3; individual replicate values. The method, then: (§1) Groups of 60–150 females were placed in bucket cages with a diameter of 21.6 cm and height of 16.5 cm (VWR) and fasted with access to water for 24 h prior to feeding. Meals were delivered to females via Glytube membrane feeders as described previously. Meals consisted of 1.5 ml sheep blood (HemoStat Laboratories), saline (400 mM NaHCO3 + dih2O), or saline and test compound. Lyophilized compounds were stored at room temperature until use. High-concentration stocks (30 mM in 100% dimethyl sulfoxide [DMSO]) (Sigma-Aldrich) were stored at −20 °C and diluted in saline immediately prior to feeding. Once prepared, meals and glycerol heating elements were warmed in a 42 °C water bath for 15 min to provide warmth to attract mosquitos to feed. ATP (1 mM final concentration) and test compounds (1 μM final concentration) were added prior to placing the meal on top of the mesh on the cage containing female mosquitos. Females were allowed 15–20 min to feed to repletion. Abdominal engorgement was scored by eye and confirmed by weighing females to ensure full feeding (Data S1). […] Females were returned to their original cage with a diH2O wick for 48 h prior to behavioral testing. The lethality of each compound was measured by counting the number of dead females in each cage 24 h post-meal.
Supplementary file 13071_2024_6347_MOESM1_ESM.png: Supplementary Material 1: Figure 1. […] (A) Percent of females feeding to repletion and (B) weight per female after feeding on the indicated meal used for testing in Miniport olfactometer experiments in Figure 3B. (C) Percent of females feeding to repletion and (D) weight per female after feeding on the indicated meal used for testing in live host assays in Figure 4. Data are shown as mean with standard deviation. n = 2–22 replicate cages, 60–150 females/cage. Females were weighed in groups of five to ensure reliable readings. Kruskal–Wallis with Dunn’s multiple comparisons to saline-fed group, ns P > 0.01, * P < 0.01, *** P < 0.0001. (PNG 321 KB)

For test [3] the test system is unchanged. As to the kind of experiment: Biting assay (mouse-in-cage). Details: key to Difference between medians: Actual (vs. saline) / Difference between medians: Hodges-Lehmann (vs. saline): differences in percent biting (blood-fed/total females, %). Conditions: for Difference between medians: Actual (vs. saline) / Difference between medians: Hodges-Lehmann (vs. saline) / Median (percent freshly blood-fed) / Significantly different (P < 0.05)? vs. saline: fed 1 μM; for Percentage of females that freshly blood-fed on an anesthetized mouse: fed 1 μM 48 h prior, 15 min exposure, individual replicates; for effect on biting / blood-feeding from a live host (in words): fed at a dose of 1 μM. Format: in vivo. Here is the method: as §1, with “ATP (1 mM final concentration) and test compounds (1 μM final concentration) were added prior to placing the meal on top of the mesh on the cage containing female mosquitos.” left out
This assay was modified from. Females were fed and scored as described above. Forty-eight hours post-meal, females were anesthetized in a 4 °C cold room and aspirated into a petri dish (Thermo Fisher Biosciences) with a randomly assigned color powder (Slice of the Moon; Chameleon Colors) to mark their treatment group. Females were then individually removed from the color powder, placed inside a cage measuring 91 cm × 61 cm × 61 cm (BugDorm), and allowed 2–4 h to recover. Each experiment consisted of a cage with 12–20 females in each treatment group including environmental (non-fed and blood-fed) and vehicle (saline-fed) control groups. The experiment began once an anesthetized mouse was introduced to the center of the cage, and females were allowed 15 min to blood-feed. The mouse was then removed, and the cage was placed at 4 °C to anesthetize females for collection. Females were aspirated into a large glass petri dish (Pyrex) and scored under a dissection microscope (Nikon SMZ1500) for powder color and blood-feeding status. Females were scored as blood-fed if fresh blood was present in the abdomen. Percent biting was calculated as females freshly blood-fed/total females in each respective treatment group.

Setting [4] is: EC50 of the individual assay date/plate (assay date), read-out: EC50.
Where [5] appears, read: Figure 1E Summary, third list (n = 39), read-out: Reported Metric (Summary list).
The mark [6] stands for this setting: HEK-293T, 11.1111 uM, single replicate, normalised response.
[7] abbreviates: HEK-293T, 33.3333 uM, single replicate, normalised response.
[8] abbreviates: relative EC50, percent effect relative to 10 μM FMRFa3, read-out: EC50.
Where [9] appears, read: sheet Figure 3C, unit inferred, read-out: EC50.
Where [10] appears, read: summary EC50 per compound (mean over assay dates), the unit is taken from the neighbouring EC50 (uM) column, read-out: Reported Metric.
Where [11] appears, read: fed 1 μM in saline, tested 48 h post-meal.

Structures are written as SMILES. Where “and” joins values, the source holds several entries; their conditions need not be identical. Equal entries are not always repeated. Where two headings read alike, the source gives them in different places.

Sequence of Ae. aegypti NPYLR7 (U5N1H5 entry or part of it): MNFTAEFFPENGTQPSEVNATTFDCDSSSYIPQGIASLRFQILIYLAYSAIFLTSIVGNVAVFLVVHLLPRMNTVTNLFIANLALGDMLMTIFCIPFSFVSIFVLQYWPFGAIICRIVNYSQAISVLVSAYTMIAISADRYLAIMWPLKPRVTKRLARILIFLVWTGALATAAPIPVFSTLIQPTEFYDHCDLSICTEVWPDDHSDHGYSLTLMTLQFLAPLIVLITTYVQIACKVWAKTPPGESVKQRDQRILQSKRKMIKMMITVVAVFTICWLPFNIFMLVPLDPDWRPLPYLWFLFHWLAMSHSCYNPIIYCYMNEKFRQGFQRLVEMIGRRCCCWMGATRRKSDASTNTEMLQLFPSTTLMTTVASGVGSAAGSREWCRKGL

For `CCCOc1ccc2c(C)nc(NC(=N)N)nc2c1` [TDI-014178], the EC50 on Ae. aegypti NPYLR7 (setting [4]), on Ae. aegypti NPYLR7 (setting [5]), on Ae. aegypti NPYLR7 (setting [8]), on Ae. aegypti NPYLR7 (setting [9]) and on Ae. aegypti NPYLR7 (setting [10]) was 2.25 µM each time. At Ae. aegypti NPYLR7 (HEK-293T, 1.2346 uM, single replicate, normalised response), the activation at 1.2346 µM came out at 42.7%. Further, the activation at 3.7037 µM on Ae. aegypti NPYLR7 (HEK-293T, 3.7037 uM, single replicate, normalised response) is 66.7%. For the same compound, at Ae. aegypti NPYLR7 (setting [6]), the activation at 11.1111 µM amounted to 86.6%. Moreover, the activation at 33.3333 µM at Ae. aegypti NPYLR7 (setting [7]) came out at 96.4%. Further, the activation at 100 µM at Ae. aegypti NPYLR7 (HEK-293T, normalised response) was 100%. Moreover, the “Host-seeking relative to saline (test compound % host-seeking/average matched saline % host-seeking)” value in test [1] (fed 1 μM in saline, tested 48 h post-meal, individual replicates, listed as TDI-04178) was 0.93 and 1. Further, the “Attraction (relative to saline)” value in test [1] (setting [11]) is listed as 0.93. For the same compound, the “% feeding (females feeding to repletion)” value in test [2] is reported as 49.19%.

On to `CCOc1ccc(COc2ccc3c(C)nc(NC(=N)N)nc3c2)cc1` [TDI-014176], for which the EC50 at Ae. aegypti NPYLR7 (setting [4]) came out at 6.35 µM; on Ae. aegypti NPYLR7 (Figure 1E Summary, second list (n = 48), read-out: Reported Metric (Summary list)), 6.35 µM; on Ae. aegypti NPYLR7 (setting [8]), 6.35 µM; on Ae. aegypti NPYLR7 (setting [9]) it was 6.35 µM; on Ae. aegypti NPYLR7 (setting [10]) it was 6.35 µM. For the same compound, the activation at 0.0017 µM on Ae. aegypti NPYLR7 (HEK-293T, 0.0017 uM, single replicate, normalised response) is 4.15%. The activation at 0.0051 µM on Ae. aegypti NPYLR7 (HEK-293T, 0.0051 uM, single replicate, normalised response) stood at 3.37%. In addition, the activation at 11.1111 µM at Ae. aegypti NPYLR7 (setting [6]) was determined as 88%. For the same compound, the activation at 33.3333 µM at Ae. aegypti NPYLR7 (setting [7]) turned out to be 131%. Also, on Ae. aegypti NPYLR7 (HEK-293T, normalised response), the activation at 100 µM was determined as 133%. Besides, the “Attraction (relative to saline)” value in test [1] (setting [11]) is 0.74. In addition, in test [2], the “% feeding (females feeding to repletion)” value was found to be 58.02%.

In the case of `Cc1nc(NC(=N)N)nc2cc(OCc3ccc(OC(F)F)cc3)ccc12` [TDI-014170], in test [3], the “Difference between medians: Actual (vs. saline)” value is given as -19.9; the “Difference between medians: Hodges-Lehmann (vs. saline)” value is recorded as -11; the “Median (percent freshly blood-fed)” value is 59.60, n=9%; the “Significantly different (P < 0.05)? vs. saline” value is reported as “No”. Moreover, the “effect on biting / blood-feeding from a live host (in words)” value in test [3] is recorded as “nor did it significantly reduce biting”. In addition, in test [3] (listed as TDI-04170), the “Percentage of females that freshly blood-fed on an anesthetized mouse” value was 44% and 57% and 85% and 74% and 53% and 82% and 55% and 62%. Also, the EC50 on Ae. aegypti NPYLR7 (setting [4]) came to 1.63 µM. In addition, on Ae. aegypti NPYLR7 (setting [5]), the EC50 came out at 1.63 µM. The activation at 11.1111 µM at Ae. aegypti NPYLR7 (setting [6]) was 80.9%. Also, the activation at 33.3333 µM at Ae. aegypti NPYLR7 (setting [7]) is 99.8%. Also, the activation at 100 µM on Ae. aegypti NPYLR7 (HEK-293T, normalised response) was determined as 128%. In addition, the EC50 on Ae. aegypti NPYLR7 (setting [8]) was 1.63 µM. Further, the “in vitro potency (in words)” value at Ae. aegypti NPYLR7 is reported as “high in vitro potency”. Also, the EC50 at Ae. aegypti NPYLR7 (setting [10]) was 1.63 µM. Also, in test [1] (setting [11]), the “Attraction (relative to saline)” value worked out at 0.91. For the same compound, in test [1] (fed at a dose of 1 μM), the “effect on host-seeking (in words)” value is “did not reduce host-seeking”.

For `COc1ccc2nc(N)nc(C)c2c1` [TDI-012610], the “Reported Metric (Summary list)” value at Ae. aegypti NPYLR7 (Figure 1E Summary, first list: low sensitivity or >100 (n = 41)) is listed as “low sensitivity”. For the same compound, the “EC50 (uM)” value at Ae. aegypti NPYLR7 (Figure 1E, EC50 of the single assay date/plate) is on record as “low sensitivity”. For the same compound, the “Reported Metric (EC50)” value on Ae. aegypti NPYLR7 (Figure 1E, metric reported per compound, repeated on every replicate line) was “low sensitivity”. For the same compound, the activation at 3.7037 µM on Ae. aegypti NPYLR7 (HEK-293T, compound 3.7037 uM, single replicate well, read-out: response at 3.7037) is 9.1%. Further, the activation at 11.1111 µM at Ae. aegypti NPYLR7 (HEK-293T, compound 11.1111 uM, single replicate well, read-out: response at 11.1111) was 4.96%. For the same compound, the activation at 33.3333 µM at Ae. aegypti NPYLR7 (HEK-293T, compound 33.3333 uM, single replicate well, read-out: response at 33.3333) was found to be 1.85%. The EC50 on Ae. aegypti NPYLR7 (setting [8]) is greater than 100 µM. For the same compound, the “in vitro potency (in words)” value on Ae. aegypti NPYLR7 was “loss of potency”. Moreover, in test [1] (setting [11]), the “Attraction (relative to saline)” value came to 0.99. Besides, the “% feeding (females feeding to repletion)” value in test [2] turned out to be 89.86%.

Regarding `CNc1nc(NC(=N)N)nc2cc(OCC3CCOCC3)ccc12` [TDI-014188], in test [3], the “Difference between medians: Actual (vs. saline)” value is reported as -21.9; the “Difference between medians: Hodges-Lehmann (vs. saline)” value is recorded as -21; the “Median (percent freshly blood-fed)” value is 50.00, n=11%; the “Significantly different (P < 0.05)? vs. saline” value was “Yes”. In addition, in test [3], the “effect on biting / blood-feeding from a live host (in words)” value is listed as “reduced biting behavior”. For the same compound, the “Percentage of females that freshly blood-fed on an anesthetized mouse” value in test [3] (listed as TDI-04188) is 17% and 78% and 72% and 33% and 47% and 67% and 53%. The EC50 at Ae. aegypti NPYLR7 (setting [8]) was found to be 0.0602 µM. For the same compound, at Ae. aegypti NPYLR7, the “in vitro potency (in words)” value was “significantly improved in vitro potency”. The “Attraction (relative to saline)” value in test [1] (setting [11]) was 0.895.

Values taken from publication PMC11212260, “Next-generation neuropeptide Y receptor small-molecule agonists inhibit mosquito-biting behavior” (Parasites & Vectors, 2024).
